This note sets out measurements from ChEMBL document CHEMBL1158884, “PSII inhibitory activity of resorcinolic lipids from Sorghum bicolor” (J Nat Prod, 2003).

SMILES strings stand for the structures. Activity calls are given as the source filed them. No cut-off for these calls is given here.

The test system of assay [1] is Lactuca sativa. The experiment in a line: Phytotoxicity against Lactuca sativa assessed as inhibition of seedlings germination at 3.33 mM after 4 days. Format: functional, organism-based.
The test system of assay [2] is Lactuca sativa. The experiment in a line: Phytotoxicity against Lactuca sativa assessed as inhibition of seedlings germination at 1.0 mM after 4 days. The assay is classed as functional, organism-based.
Assay [3] is described as follows: Inhibition of Photosystem 2 in spinach thylakoid membrane assessed as inhibition of photosynthetic oxygen evolution. Format: cell membranes, Spinacia oleracea.

Broadly, the IC50 is the midpoint of a concentration-inhibition curve. With `C=CC/C=C\C/C=C\CCCCCCCc1c(O)c(OC)cc(OC)c1O`, the result in the assay on Lactuca sativa [1] and in the assay with Lactuca sativa [2] was Active. In addition, the IC50 in assay [3] came out at 90 nM.

As for `CN(C)C(=O)Nc1ccc(Cl)c(Cl)c1` [DCMU], in assay [3], the IC50 was 230 nM.

Regarding `C=CC/C=C\C/C=C\CCCCCCCc1c(O)c(OC)cc(OCC)c1O` [E565], the half-inhibitory concentration (IC50) in assay [3] was 200 nM.

As for `C=CC/C=C\C/C=C\CCCCCCCC1=C(O)C(=O)C=C(OC)C1=O` [SORGOLEONE], the result in the assay on Lactuca sativa [1] was Active. For the same compound, the half-maximal inhibitory concentration (IC50) in assay [3] was 90 nM.
